Reference: DBAASP
In brackets after ≈: the same amount, converted by molar mass. Several values for one entry are separate records, joined by “and”; a condition that tells them apart may be missing. Equal values may be shown once. One block for each molecule: values may come before it.

Columns and labels:
Experiment in all cases: ≥ marks a high value that may be exact or a test limit, other limits are often not marked, values filed in µg/mL are converted to µM
[1] = tested on: Pseudomonas aeruginosa ATCC 27853
[2] = tested on: Bacillus subtilis ATCC 6051
[3] = tested on: Cryptococcus neoformans ATCC 2517
[4] = tested on: Candida krusei ATCC 28870
[5] = tested on: Escherichia coli ATCC 25922
[6] = tested on: Aspergillus flavus ATCC 24109
[7] = tested on: Enterococcus faecalis ATCC 29212
[8] = tested on: Saccharomyces cerevisiae PTCC 5052
[9] = tested on: Candida albicans ATCC 10231
[10] = tested on: Aspergillus niger ATCC 9142
[11] = tested on: Microsporum canis PTCC 5069
[12] = tested on: Staphylococcus aureus ATCC 25923
[13] = tested on: Trichophyton mentagrophytes ATCC 32510
[14] = tested on: Candida glabrata ATCC 90030
[15] = tested on: Aspergillus fumigatus ATCC 1022
[16] = tested on: Salmonella enterica subsp. enterica serovar Typhimurium ATCC 14028
[17] = tested on: Pseudomonas aeruginosa PAO1
[18] = tested on: Pseudomonas aeruginosa PA006
[19] = tested on: Staphylococcus aureus ATCC 29313
[20] = tested on: Pseudomonas aeruginosa Pa1-SA2
[21] = tested on: Klebsiella pneumoniae ATCC 700603
[22] = tested on: Pseudomonas aeruginosa Pa4-SA2
[23] = tested on: Listeria monocytogenes KCTC 3710
[24] = tested on: Candida albicans KCTC 7270
[25] = tested on: Proteus vulgaris KCTC 2433
[26] = tested on: Salmonella typhimurium KCTC 1926
[27] = tested on: Trichosporon beigelii KCTC 7707
[28] = tested on: Aspergillus awamori KCTC 6915
[29] = tested on: Aspergillus parasiticus KCTC 6598
[30] = tested on: Aspergillus fumigatus KCTC 6145
[31] = tested on: Aspergillus flavus KCTC 6905
[32] = tested on: Bacillus subtilis KCTC 1998
[33] = tested on: Staphylococcus epidermidis ATCC 12228
[34] = tested on: Pseudomonas aeruginosa ATCC 15692
[35] = tested on: Staphylococcus aureus P1374
[36] = tested on: Staphylococcus aureus ATCC 29213
Escherichia coli AB94012 = tested on: Escherichia coli AB94012
[37] = tested on: Staphylococcus aureus AB94004
[38] = tested on: Acinetobacter baumannii ATCC 19606
[39] = tested on: Acinetobacter baumannii KCTC 2508
Streptococcus agalactiae = tested on: Streptococcus agalactiae
[40] = tested on: Klebsiella pneumoniae KCTC 2208
[41] = tested on: Pseudomonas aeruginosa 671973
Enterococcus faecium = tested on: Enterococcus faecium
[42] = tested on: Pseudomonas aeruginosa 3592
[43] = tested on: Pseudomonas aeruginosa 5018
[44] = tested on: Pseudomonas aeruginosa 4007
Acinetobacter baumannii = tested on: Acinetobacter baumannii
[45] = tested on: Staphylococcus aureus P1381
[46] = tested on: Staphylococcus epidermidis AB208187
[47] = tested on: Bacillus cereus KCTC 1012
[48] = tested on: Pseudomonas aeruginosa ATCC 9027
[49] = tested on: Bacillus subtilis AB91021
[50] = tested on: Staphylococcus epidermidis AB208188
[51] = tested on: Micrococcus luteus AB93113
[52] = tested on: Pseudomonas aeruginosa AB93066
[53] = tested on: Staphylococcus aureus ATCC 6538
[54] = tested on: Staphylococcus aureus AB208193

MIC [1]: > 675 µM
MIC [2]: ≥ 172 µM
MIC [3]: ≥ 675 µM
MIC [4]: ≥ 338 µM
MIC [5]: 84.4 µM (≈ 125 µg/mL)
MIC [6]: ≥ 675 µM
MIC [7]: 84.4 µM (≈ 125 µg/mL)
MIC [8]: ≥ 84.4 µM
MIC [9]: 84.4 µM (≈ 125 µg/mL)
MIC [10]: ≥ 675 µM
MIC [11]: ≥ 675 µM
MIC [12]: > 675 µM
MIC [13]: ≥ 675 µM
MIC [14]: ≥ 675 µM
MIC [15]: ≥ 84.4 µM
SMILES: CC[C@H](C)[C@H](NC(=O)[C@H](CCCCN)NC(=O)[C@H](CCCCN)NC(=O)[C@@H](NC(=O)[C@@H](NC(=O)[C@H](CC(=O)O)NC(=O)[C@H](Cc1ccccc1)NC(=O)[C@H](CC(C)C)NC(=O)CN)[C@@H](C)CC)[C@@H](C)CC)C(=O)N[C@@H](C)C(=O)N[C@@H](CCC(=O)O)C(=O)N[C@@H](CO)C(=O)N[C@@H](Cc1ccccc1)C(=O)O [GLFDIIKKIAESF]

MIC [1]: > 197 µM
MIC [16]: 308 µM (≈ 800 µg/mL)
MIC [17]: 197 µM (≈ 512 µg/mL)
MIC [5]: 77.1 µM (≈ 200 µg/mL)
MIC [18]: 6.17 µM (≈ 16 µg/mL)
MIC [20]: ≥ 197 µM
MIC [21]: 308 µM (≈ 800 µg/mL)
MIC [22]: ≥ 98.6 µM
SMILES: CC[C@H](C)[C@H](NC(=O)[C@H](CCCCN)NC(=O)CNC(=O)[C@H](CCSC)NC(=O)[C@H](C)NC(=O)[C@H](Cc1cnc[nH]1)NC(=O)[C@H](C)NC(=O)[C@@H](NC(=O)[C@H](CC(C)C)NC(=O)[C@H](CCC(N)=O)NC(=O)[C@H](CCCCN)NC(=O)CNC(=O)[C@H](C)NC(=O)CNC(=O)[C@H](CCCCN)NC(=O)[C@@H](NC(=O)[C@@H](NC(=O)[C@H](CC(=O)O)NC(=O)[C@H](Cc1ccccc1)NC(=O)[C@@H](NC(=O)CN)C(C)C)[C@@H](C)CC)[C@@H](C)CC)[C@@H](C)CC)C(=O)N[C@@H](C)C(=O)N[C@@H](CCC(=O)O)C(=O)N[C@@H](CCCCN)C(=O)N[C@H](C(N)=O)C(C)C [GVFDIIKGAGKQLIAHAMGKIAEKV]
MIC [19]: ≥ 308 µM

MIC [23]: 16 µM (≈ 30.6 µg/mL)
MIC [24]: 16 µM (≈ 30.6 µg/mL)
MIC [5]: 32 µM (≈ 61.1 µg/mL)
MIC [25]: 11.3 µM (≈ 21.6 µg/mL)
MIC [26]: 8 µM (≈ 15.3 µg/mL)
MIC [27]: ≥ 128 µM
MIC [28]: ≥ 64 µM
MIC [12]: 16 µM (≈ 30.6 µg/mL)
MIC [29]: 16 µM (≈ 30.6 µg/mL)
MIC [30]: 16 µM (≈ 30.6 µg/mL)
MIC [31]: ≥ 64 µM
MIC [32]: 8 µM (≈ 15.3 µg/mL)
MIC [33]: 8 µM (≈ 15.3 µg/mL)
MIC [34]: ≥ 32 µM
SMILES: CC[C@H](C)[C@H](NC(=O)[C@H](CCCCN)NC(=O)[C@H](CCCCN)NC(=O)[C@H](C)NC(=O)[C@H](CC(C)C)NC(=O)[C@H](CCCCN)NC(=O)[C@H](CCCCN)NC(=O)[C@H](CC(C)C)NC(=O)[C@H](CCCN=C(N)N)NC(=O)[C@H](CCCCN)NC(=O)[C@H](C)N)C(=O)N[C@@H](Cc1c[nH]c2ccccc12)C(=O)N[C@@H](CCCCN)C(=O)N[C@@H](Cc1c[nH]c2ccccc12)C(=O)N[C@@H](CC(C)C)C(N)=O [AKRLKKLAKKIWKWL]

MIC [35]: 16.2 µM (≈ 25 µg/mL)
MIC [23]: 3.13 µM (≈ 4.84 µg/mL)
MIC [36]: 6.25 µM (≈ 9.66 µg/mL)
MIC (Escherichia coli AB94012): ≥ 64.6 µM
MIC [16]: 3.13 µM (≈ 4.84 µg/mL)
MIC [37]: 8.08 µM (≈ 12.5 µg/mL)
MIC [38]: 3.23 µM (≈ 5 µg/mL)
MIC [39]: 3.13 µM and 6.25 µM
MIC (Streptococcus agalactiae): 16.2 µM (≈ 25 µg/mL)
MIC [40]: 12.5 µM (≈ 19.3 µg/mL)
MIC [41]: 3.13 µM (≈ 4.84 µg/mL)
MIC (Enterococcus faecium): 8.08 µM (≈ 12.5 µg/mL)
MIC [42]: 6.25 µM (≈ 9.66 µg/mL)
MIC [43]: 12.5 µM (≈ 19.3 µg/mL)
MIC [44]: 25 µM (≈ 38.6 µg/mL)
MIC (Acinetobacter baumannii): 4.14 µM and 3.13 µM and 6.25 µM
MIC [45]: 8.08 µM (≈ 12.5 µg/mL)
MIC [46]: 16.2 µM (≈ 25 µg/mL)
MIC [47]: 12.5 µM (≈ 19.3 µg/mL)
MIC [48]: > 64.6 µM
MIC [49]: 8.08 µM (≈ 12.5 µg/mL)
MIC [50]: 16.2 µM (≈ 25 µg/mL)
MIC [12]: 4.04 µM and 3.13 µM
MIC [51]: 8.08 µM (≈ 12.5 µg/mL)
MIC [52]: ≥ 64.6 µM
MIC [53]: 8.08 µM (≈ 12.5 µg/mL)
MIC [54]: 8.08 µM (≈ 12.5 µg/mL)
SMILES: CC[C@H](C)[C@H](NC(=O)CN)C(=O)N[C@@H](CC(C)C)C(=O)NCC(=O)N[C@@H](CCCCN)C(=O)N[C@@H](CC(C)C)C(=O)N[C@@H](Cc1c[nH]c2ccccc12)C(=O)N[C@@H](CCC(=O)O)C(=O)NCC(=O)N[C@H](C(=O)N[C@@H](CCCCN)C(=O)N[C@@H](CO)C(=O)N[C@H](C(=O)N[C@@H](Cc1ccccc1)C(N)=O)[C@@H](C)CC)C(C)C [GILGKLWEGVKSIF]
